# Assay results published in patent US20120101093A1, “SUBSTITUTED IMIDAZO[1,2-A]PYRIDINE DERIVATIVES, PHARMACEUTICAL COMPOSITIONS, AND METHODS OF USE AS BETA-SECRETASE INHIBITORS” (HIGH POINT PHARMACEUTICALS, LLC, priority 2009, published 2012).
# Biological target: T1, BACE-1 enzyme (Homo sapiens, UniProt P56817)
# T1 construct: purchased R & D Systems 931AS
# Experiment: BACE Fluorescence Resonance Energy Transfer (FRET) Assay
# Format: biochemical
# Conditions: pH 4-4.5, 30 min pre-incubation, about 1.5 hours reaction
# How it was run: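 Fluorescence (ex 540, em 585 nm) after ~1.5 h room-temperature cleavage of a quenched rhodamine peptide tracks BACE-1 activity. Enzyme and compound first sit 30 min in pH 4-4.5 acetate buffer with CHAPS, Triton X-100, EDTA, 7.5% DMSO. Values given as IC50 or % inhibition.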
# T1 sequence (P56817 46-457 limits assumed): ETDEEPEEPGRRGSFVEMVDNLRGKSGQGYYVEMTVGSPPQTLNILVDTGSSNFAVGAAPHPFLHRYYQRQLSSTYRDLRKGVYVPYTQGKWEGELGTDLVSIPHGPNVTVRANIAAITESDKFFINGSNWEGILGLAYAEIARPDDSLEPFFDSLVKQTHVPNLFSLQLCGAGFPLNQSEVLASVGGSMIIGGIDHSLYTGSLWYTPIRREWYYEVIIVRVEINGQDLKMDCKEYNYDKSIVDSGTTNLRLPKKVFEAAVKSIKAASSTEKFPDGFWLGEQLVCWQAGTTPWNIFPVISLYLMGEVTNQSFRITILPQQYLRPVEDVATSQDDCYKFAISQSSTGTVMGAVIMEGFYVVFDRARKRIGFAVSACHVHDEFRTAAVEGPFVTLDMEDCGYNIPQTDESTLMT
row,SMILES,IC50 [µM]
1,"Cc1cc(OCCN2CCCCC2)c2nc(C(=O)Nc3nc4cc(-c5cc(F)cc(Cl)c5)ccc4[nH]3)cn2c1 [Example 149, 6-Methyl-8-(2-piperidin-1-yl-ethoxy)-imidazo[1,2-a]pyridine-2-carboxylic acid [5-(3-chloro-5-fluoro-phenyl)-1H-benzoimidazol-2-yl]-amide]",0.57
2,"COc1cccn2cc(C(=O)Nc3nc4cc(-c5cc(F)cc(Cl)c5)ccc4[nH]3)nc12 [Example 151, 8-Methoxy-imidazo[1,2-a]pyridine-2-carboxylic acid [5-(3-chloro-5-fluoro-phenyl)-1H-benzoimidazol-2-yl]-amide]",0.31
3,"O=C(Nc1nc2cc(-c3cc(F)cc(Cl)c3)ccc2[nH]1)c1cn2cc(F)cc(N3CC[C@H](O)C3)c2n1 [Example 152, 6-Fluoro-8-((S)-3-hydroxy-pyrrolidin-1-yl)-imidazo[1,2-a]pyridine-2-carboxylic acid [5-(3-chloro-5-fluoro-phenyl)-1H-benzoimidazol-2-yl]-amide]",1.53
4,"O=C(Nc1nc2cc(-c3cc(F)cc(Cl)c3)ccc2[nH]1)c1cn2cc(F)cc(N3CC[C@@H](O)C3)c2n1 [Example 153, 6-Fluoro-8-((R)-3-hydroxy-pyrrolidin-1-yl)-imidazo[1,2-a]pyridine-2-carboxylic acid [5-(3-chloro-5-fluoro-phenyl)-1H-benzoimidazol-2-yl]-amide]",1.83
5,"O=C(Nc1nc2cc(-c3cc(F)cc(Cl)c3)ccc2[nH]1)c1cn2c(N3CC[C@H](O)C3)cccc2n1 [Example 155, 5-((S)-3-Hydroxy-pyrrolidin-1-yl)-imidazo[1,2-a]pyridine-2-carboxylic acid [5-(3-chloro-5-fluoro-phenyl)-1H-benzoimidazol-2-yl]-amide]",0.25
6,"CO[C@H]1CCN(c2cccc3nc(C(=O)Nc4nc5cc(-c6cc(F)cc(Cl)c6)ccc5[nH]4)cn23)C1 [Example 157, 5-((S)-3-Methoxy-pyrrolidin-1-yl)-imidazo[1,2-a]pyridine-2-carboxylic acid [5-(3-chloro-5-fluoro-phenyl)-1H-benzoimidazol-2-yl]-amide]",0.32

# Next, values leading:
row,IC50 [µM],SMILES
1,0.46,"Cc1cc(OCCN2CCN(C)CC2)c2nc(C(=O)Nc3nc4cc(-c5cc(F)cc(Cl)c5)ccc4[nH]3)cn2c1 [Example 150, 6-Methyl-8-[2-(4-methyl-piperazin-1-yl)-ethoxy]-imidazo[1,2-a]pyridine-2-carboxylic acid [5-(3-chloro-5-fluoro-phenyl)-1H-benzoimidazol-2-yl]-amide]"
2,1.33,"O=C(Nc1nc2cc(-c3cc(F)cc(Cl)c3)ccc2[nH]1)c1cn2cc(F)cc(N3CCC(O)CC3)c2n1 [Example 154, 6-Fluoro-8-(4-hydroxy-piperidin-1-yl)-imidazo[1,2-a]pyridine-2-carboxylic acid [5-(3-chloro-5-fluoro-phenyl)-1H-benzoimidazol-2-yl]-amide]"
3,0.29,"CO[C@@H]1CCN(c2cccc3nc(C(=O)Nc4nc5cc(-c6cc(F)cc(Cl)c6)ccc5[nH]4)cn23)C1 [Example 156, 5-((R)-3-Methoxy-pyrrolidin-1-yl)-imidazo[1,2-a]pyridine-2-carboxylic acid [5-(3-chloro-5-fluoro-phenyl)-1H-benzoimidazol-2-yl]-amide]"
4,0.1,"O=C(Nc1nc2cc(-c3cc(F)cc(Cl)c3)ccc2[nH]1)c1cn2c(N3CCC(O)CC3)cccc2n1 [Example 158, 5-(4-Hydroxy-piperidin-1-yl)-imidazo[1,2-a]pyridine-2-carboxylic acid [5-(3-chloro-5-fluoro-phenyl)-1H-benzoimidazol-2-yl]-amide]"
5,0.34,"CO[C@H]1CCN(c2cc(F)cn3cc(C(=O)Nc4nc5cc(-c6cc(F)cc(Cl)c6)ccc5[nH]4)nc23)C1 [Example 159, 6-Fluoro-8-((S)-3-methoxy-pyrrolidin-1-yl)-imidazo[1,2-a]pyridine-2-carboxylic acid [5-(3-chloro-5-fluoro-phenyl)-1H-benzoimidazol-2-yl]-amide]"
